The values that follow come from US10119122B2, “Differentiation and expansion of endothelial cells from pluripotent stem cells and the in vitro formation of vasculature like structures” (Academisch Ziekenhuis Leiden, priority 2013, dated 2018).

Assay type in all cases: cell-based, human
Experiment [1] deals with control iPSC-derived ECs co-cultured with control iPSC-derived pericytes/mesenchymal cells. Description: 2D endothelial-pericyte co-culture sprouting assay, control ECs. The following applies: for sprout formation / number of endothelial sprouts: SB431542 (10 μM in FIG. 20 legend); for total area covered by endothelial sprouts: SB431542. As to the method: (§1) The endothelial capillary-like network formation assay was carried out as previously described but with major modifications (Evensen et al., 2013). These included using both ECs and pericytes derived from human iPSC lines. This is described in more detail elsewhere (Orlova et al., manuscript in preparation). ECs were labelled with the general cytoplasmic labeling dye (PKH-26). For the sprouting assay, 12,000 ECs derived from both control and diseased lines were plated with 50,000 control iPSC-derived pericytes/well on 0.1% gelatin coated 96-well plates in EGM-2 (Lonza, CC-3162). Next day and on the day 4 of the assay, medium was replaced with new EGM-2 media containing tested compounds as indicated in the figure legends. Endothelial-pericyte co-culture was terminated on day 7 of the assay each well immunofluorescently stained for quantification, as follows: co-cultures were fixed with the 4% paraformaldehyde (PFA), permeabilized with the 0.1% TX-100 and blocked with the normal goat serum (Dako). Endothelial sprouts were visualized with the mouse anti-CD31 (Dako, 1:200). In some experiment with the mouse blocking antibodies, rabbit anti-CD31 (Scbt, 1:200) was used instead. Pericytes were visualized with antibodies against SM22 (Sigma, 1:200). The endothelial network was imaged with the BD Pathway 855 system using the 4× or 10× objective and 2×2 (or 3×3) Montage mode. Total area covered by the endothelial sprouts was quantified with the protocol developed within cell image analysis software CellProfiller (Broad Institute). High magnification images were acquired with the SP5 confocal microscope, using 10× and 40× objectives.
A two-dimensional co-culture system was first established in vitro consisting of control iPSC-derived ECs cultured with the control iPSC-derived mesenchymal cells (FIG. 10A). The protocol was optimized and adapted to the BD Pathway 855 imaging system, based on the protocol initially described for the co-culture of HUVECs and vascular SMCs (vSMCs) (Evensen et al., 2013). On day 7 of the co-culture, iPSC-derived EC had organized and formed spouts on the top mesenchymal cells, as evidenced by immunofluorescent staining with the EC-specific CD31 and SMC-specific SM22 markers (FIG. 10B).
(§2) Endothelial cell-pericyte co-culture was performed as described previously (Evensen et al., 2013) but using conditions optimized for iPSC-derived ECs and pericytes as described (Orlova et al., manuscript in preparation). In brief, 12,000 and 50,000 iPSC-derived ECs and pericytes were plated, respectively, in each well of a 96-well plate. Next day the co-cultures were refreshed with the specific treatment conditions indicated. The co-culture was fixed on day 7, and EC sprouts stained with anti-CD31 antibody (1:200, Dako) (as described in Orlova et al., manuscript in preparation). Pericytes were visualized with the anti-SM22 antibody (1:200, Abcam). The BD Pathway 855 system was used for automatic image acquisition, with the 4× objective and 2×2 (or in some cases 3×3) montage mode. CellProfiller (Broad Institute) custom pipeline was used for the image quantification.

Experiment [2] deals with HHT1-iPSC-derived ECs co-cultured with control iPSC-derived pericytes. Kind of experiment: 2D endothelial-pericyte co-culture sprouting assay, HHT1 patient ECs. The following applies: SB431542 added with TGFβ3 (1 ng/ml) or BMP9 (1 ng/ml); day 7; control and HHT1-iPSC ECs (FIG. 17). As to the method:
as §1
It was hypothesized that this system might be useful for distinguishing […] versus paracrine effects of endoglin deficiency in HHT1-iPSCs-derived ECs. Therefore, ECs from HHT-iPSC lines in the co-culture assay combined with the pericytes derived from the control iPSCs were examined. Little difference was observed between ECs from HHT1 and control iPSCs in co-culture. ECs from the patient harboring the 1083delAA and IVS 5+2 (T>C) mutation similar endothelial sprout formation as the controls (FIGS. 11A and 11B).
as §2

Experiment [3] relates to iPSC-derived pericytes/mesenchymal cells. Description: Contractile smooth muscle marker expression in iPSC-derived pericytes/mesenchymal cells. Particulars: ALK5 inhibitor. As to the method:
Our differentiation system facilitates simultaneous derivation and expansion of pericytes and ECs from iPSC lines. […] Thus, a renewable source of pericytes/SMCs was created for co-culture with ECs that would in principle be able to simulate endothelial-pericyte interaction in humans.
iPSC-derived pericytes/mesenchymal cells were derived from the CD31− fraction emerging during the endothelial differentiation protocol. CD31− cells were plated on gelatin coated plates in EGM-2 media (Lonza). After 4 days medium was replaced by DMEM+10% FBS supplemented with TGFβ3 (2 ng/ml, Peprotech) and PDGF-BB (4 ng/ml, Peprotech). iPSC-derived pericytes were routinely maintained on gelatin-coated plates in DMEM+10% FBS. Cells were characterized for the expression of pericyte and mesenchymal cell-specific markers by flow cytometry and immunofluorescent staining as describe above.
ECs and pericytes were cultured as described above on gelatin coated coverslips. Cells were fixed with 4% PFA, permeabilized and stained with the following antibodies as described (Orlova et al., Manuscript in preparation): anti-Ve-Cadherin (1:200, CellSignaling), anti-vWF (1:200, Dako), anti-CD31 (1:200, Dako), anti-SM22a (1:200, Abcam), anti-SMA (1:400, Sigma), anti-CNN1 (1:200, Sigma).

Setting [4] is: day 7, listed as ALK5 inhibitor.

For `NC(=O)c1ccc(-c2nc(-c3ccc4c(c3)OCO4)c(-c3ccccn3)[nH]2)cc1` [SB431542, reference compound], the “SM22 fluorescence intensity in endothelial-pericyte co-culture” value in experiment [1] (ALK5 inhibitor, day 7, confocal imaging and quantification) was “increase in SM22 fluorescence intensity”. In addition, the “endothelial cell proliferation (Ki67+ ECs)” value in experiment [1] (SB431542 10 μM, day 7 co-culture) was “Increased endothelial cell proliferation”. Moreover, the “sprout formation / number of endothelial sprouts” value is “enhancement of sprout formation” in experiment [1] (day 7) and “significant increase in number of endothelial sprouts” in experiment [1] (setting [4]). Also, the “total area covered by endothelial sprouts” value in experiment [1] (day 7) is “increase in the total area covered by endothelial sprouts”; in experiment [1] (setting [4]), “significant increase”. Besides, the “rescue of ligand-induced inhibition of sprout formation” value in experiment [2] is “rescued the inhibitory effect of both TGFβ3 and BMP-9”. Moreover, in experiment [3], the “SM22 expression in pericytes” value is “no effect on SM22 expression in pericytes”.
